Assay results reported in patent publication US20220287995A1, “COMPOSITIONS AND METHODS FOR INHIBITING BACTERIAL VIRULENCE AND FLIM-BASED DEVICE AND METHOD FOR ANTIBIOTIC SUSCEPTIBILITY TESTING” (THE REGENTS OF THE UNIVERSITY OF CALIFORNIA, priority 2019, published 2022).
Entries after “also recorded” stand apart in the source; their conditions may differ.

Assays:
[1] = test system: surface-attached P. aeruginosa; experiment: Image-based virulence (host killing) assay with amoeba host cells and calcein-AM; format: cell-based, Pseudomonas aeruginosa; conditions: for host-killing activity (host killing index): surface-attached wild-type P. aeruginosa in rich (PS:DB) medium, supplemented at 3 hours at 0.2%, assessed after 6 hours of growth, amoeba host cells
Method: P. aeruginosa cells were assayed using an image-based virulence assay as described previously (12, 50). P. aeruginosa strains were cultured in PS:DB, diluted 1:100 into 60×15 mm plastic petri dishes (Corning, Corning, N.Y.), cultured for 4 to 6 hours by shaking at 100 rpm, and harvested. Planktonic cells were assayed by transferring 10 μL of culture from the petri dish to a new petri dish, mixing with an equal volume of D. discoideum that were grown to an OD600 of 0.2-0.5, and immobilizing by placing an agar pad on top of the mixture (FIG. 11C). Agar pads were made using Bacto agar at a concentration of 1%, DB buffer, and 1 μM calcein acetoxymethyl (AM) ester (Molecular Probes, Eugene, Oreg.), and were cut into 1.5×1.5 cm squares (12, 50). Surface-attached cells were assayed by aspirating planktonic cells from the culture, washing with DB buffer to remove planktonic cells, mixing with an equal volume of D. discoideum, and immobilizing by placing an agar pad on top of the mixture (FIG. 11C) (50). The immobilized planktonic or surface-attached P. aeruginosa and D. discoideum were incubated at room temperature for 1 hour and imaged using fluorescence microscopy. The host killing index (12, 50) was computed as the average ratio of calcein-AM fluorescence to cell area in individual amoeba cells for 30 to 200 cells in each experiment.
Fluorescence microscopy to assess calcein-AM fluorescence was performed using a Nikon Eclipse Ti-E microscope (Nikon, Melville, N.Y.) containing Nikon 10× Plan Fluor Ph1 (0.3 NA) and 20×S Plan Fluor Nikon (0.45 NA) objectives, a Sola light engine (Lumencor, Beaverton, Oreg.), an LED-DA/FI/TX filter set (Semrock, Rochester, N.Y.) containing a 409/493/596 dichroic and 474/27 nm and 525/45 nm filters for excitation and emission, respectively, and a Hamamatsu Orca Flash 4.0 V2 camera (Hamamatsu, Bridgewater, N.J.). Images were acquired using Nikon NIS-Elements and analyzed using custom built software written previously (12) in Matlab (Mathworks, Natick, Mass.).
For experiments in which strains cultured in PS:DB were supplemented with individual carbon sources (FIG. 5A-D), pyruvic acid, citric acid, […], glycerol, or glucose was added to cultures at a final concentration of 0.2% at 3 hours following a 1:100 dilution from an overnight culture. Cultures were harvested after 1 additional hour of growth for measurements of fluorescence lifetime and NADH and NAD^+ concentrations. For experiments in which surface-attached strains that were cultured in PS:DB media were treated with antimycin A (FIG. 5E-F), 10 μM antimycin A dissolved in 0.1% ethanol, 0.1% ethanol, alone, or 10 μM antimycin A dissolved in 0.1% ethanol and 0.2% citric acid were added after 3 hours of growth following a 1:100 dilution from an overnight culture. Host killing was measured after an additional 1 to 3 hours of growth (total of 4 to 6 hours of growth).

P. aeruginosa = experiment: Colorimetric enzyme-cycling assay of NADH and NAD+ concentrations; format: cell-based, Pseudomonas aeruginosa; conditions: for NADH/NAD+ ratio / total concentrations of NADH and NAD+ / change in NADH/NAD+ ratio / change in total NAD(H) production: surface-attached; for NADH/NAD+ ratio / total concentrations of NADH and NAD+: mid-exponential phase; for change in NADH/NAD+ ratio / change in total NAD(H) production: rich (PS:DB) medium, carbon source 0.2% added at 3 hours, harvested after 1 additional hour
Method: The concentrations of reduced and oxidized nicotinamide adenine dinucleotide (NADH, NAD^+) were measured using a colorimetric enzyme-cycling assay as described previously (45). P. aeruginosa strains were cultured overnight in PS:DB, diluted 1:100 into 60×15 mm plastic petri dishes (Corning, Corning, N.Y.) containing the same medium, and grown for 4 to 6 hours. Alternatively, strains were cultured overnight in minimal medium, diluted 1:100 into plastic petri dishes containing modified minimal medium with single carbon sources, and grown to an OD600 of 0.2. Cultures were harvested in a glove box chamber (Bel-Art, Wayne, N.J.) that had been vacuumed to remove air and flushed with nitrogen constantly throughout the experiment to prevent oxidation of NADH. Subsequent steps were performed and solutions were prepared in the glove box unless otherwise indicated. Solutions containing 0.05 to 1 μM of NADH (Sigma) or NAD^+ (Sigma) were included as calibration controls.
Planktonic cells were isolated from petri dishes, pelleted by centrifugation at 16,000×g for 1 min, the residual supernatant was discarded and the pellet was immediately resuspended in 0.2 M NaOH or HCl to extract NADH or NAD^+, respectively, as described previously (45, 46). Surface-attached cells were harvested by aspirating planktonic cells from petri dishes, washing with DB buffer or modified minimal medium with no carbon source for strains cultured in PS:DB or modified minimal medium A containing single carbon sources, respectively, adding 0.2 M NaOH or HCl, and scraping surfaces with a cell scraper (Sarstedt, Nümbrecht, Germany). As a control, the Δphz12 strain was cultured overnight in modified MOPS synthetic medium (46), diluted 1:100 in the same medium in culture tubes for 1 to 4 hours, pelleted by centrifugation, resuspended in 0.2 M NaOH or HCl, as described previously (46). The resuspensions in NaOH or HCl were neutralized using equal volume of 0.1 M HCl or NaOH, respectively, and portions were assayed for protein content, NADH, and NAD^+. Resuspensions were assayed for protein content using a BCA assay kit (ThermoFisher Scientific, Waltham, Mass.) using a 50:1 mixture of solutions A and B from the kit. Solutions were incubated at 37° C. for 30 min and measured for absorbance at 562 nm. Resuspensions that were not used for the BCA assay were normalized by protein content by diluting in Millipore-filtered water.
NADH and NAD^+ concentrations were determined by following the protocol described previously (45). Briefly, normalized resuspensions were centrifuged at 16,000×g for 10 minutes at 4° C. to remove cell debris and mixed with a reaction mixture containing 40 mM EDTA, 1 M bicine (Sigma), 4.2 mM 3-(4,5-dimethylthiazol-2-yl)-2,5-diphenyltetrazolium bromide (Sigma), 16.6 mM phenazine ethosulfate (Sigma), 1 mg/mL alcohol dehydrogenase (Sigma), and ethanol, and the absorbance at 570 nm of the solution was measured in a 96-well plate (Corning Corning, N.Y.) at 30° C. every 30 seconds for 30 minutes using a BioTek Synergy HTX reader (BioTek, Winooski, Vt.). The reaction mixture and the normalized resuspensions were aliquoted and mixed inside the glove box. The centrifugation and absorbance measurements were performed outside of the glove box. The absorbance per unit time was determined by fitting data on the initial velocity of enzyme activity, acquired between 2 to 10 minutes of the absorbance measurements. The absorbances per unit time for the NADH and NAD^+ calibration controls were linearly fit for the full range of calibration concentrations to establish a linear equation that relates the absorbance per unit time and NAD(H) concentration. The NAD(H) concentrations of the planktonic and surface-attached cell resuspensions were determined by inputting the respective absorbance per unit time fits of the samples into these equations. […]

[2] = planktonic cells, modified minimal medium, single carbon source at 0.2%
[3] = modified minimal medium, single carbon source at 0.2%

| SMILES | effect on the earlier virulence induction by antimycin A ([1]; co-treatment at 3 hours with 0.2% citrate and 10 μM antimycin A in 0.1% ethanol, surface-attached) | host-killing activity (host killing index) [1] | NAD(H) concentration relative to glycerol (P. aeruginosa; [2]) | NADH/NAD+ ratio relative to glycerol (P. aeruginosa; [2]) | NADH/NAD+ ratio (P. aeruginosa; [3]) | total concentrations of NADH and NAD+ (P. aeruginosa; [3]) | change in NADH/NAD+ ratio (P. aeruginosa) | change in total NAD(H) production (P. aeruginosa) |
| --- | --- | --- | --- | --- | --- | --- | --- | --- |
| O=C(O)CC(O)(CC(=O)O)C(=O)O [citrate] | inhibited | inhibited virulence; also recorded: abolished host-killing activity | slightly lower | slightly greater | increasing ratios | intermediate | greatest increases | greatest decreases; also recorded: decreased |
| OCC(O)CO [glycerol] | – | no effect on host-killing activity | – | – | increasing ratios | intermediate | smallest changes | relatively small impacts |
